Test results reported in PMC4896225 (Journal of immunology (Baltimore, Md. : 1950), 2016).

Target: gp96 (Canis lupus, UniProt P41148)
Assay: gamma-32P ATP ATPase assay with purified gp96
Assay type: biochemical

Chain of gp96 (P41148 22-804): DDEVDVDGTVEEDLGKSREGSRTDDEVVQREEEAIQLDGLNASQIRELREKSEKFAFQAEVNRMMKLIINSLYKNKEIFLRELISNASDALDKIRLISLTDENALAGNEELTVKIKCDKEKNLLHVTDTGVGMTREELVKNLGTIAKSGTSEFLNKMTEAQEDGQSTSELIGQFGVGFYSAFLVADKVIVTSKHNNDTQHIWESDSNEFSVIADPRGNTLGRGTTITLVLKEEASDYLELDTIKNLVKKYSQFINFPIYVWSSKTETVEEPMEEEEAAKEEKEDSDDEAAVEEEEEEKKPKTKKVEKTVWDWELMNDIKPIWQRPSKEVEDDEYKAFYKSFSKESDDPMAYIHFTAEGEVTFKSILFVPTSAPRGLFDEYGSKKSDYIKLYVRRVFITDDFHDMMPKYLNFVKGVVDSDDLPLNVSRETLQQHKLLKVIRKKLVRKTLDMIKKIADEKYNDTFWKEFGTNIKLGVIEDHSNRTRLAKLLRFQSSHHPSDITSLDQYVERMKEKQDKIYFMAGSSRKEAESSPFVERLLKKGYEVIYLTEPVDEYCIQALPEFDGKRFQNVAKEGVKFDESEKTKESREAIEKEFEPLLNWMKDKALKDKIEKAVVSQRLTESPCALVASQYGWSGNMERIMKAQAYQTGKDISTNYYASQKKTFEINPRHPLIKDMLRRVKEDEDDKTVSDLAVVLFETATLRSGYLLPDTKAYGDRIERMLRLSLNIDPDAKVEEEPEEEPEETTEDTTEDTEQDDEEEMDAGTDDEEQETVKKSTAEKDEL

In the case of `C/C(=N\NC(=N)N)c1cc(NC(=O)CCCCCCCCC(=O)Nc2cc(/C(C)=N/NC(=N)N)cc(/C(C)=N/NC(=N)N)c2)cc(/C(C)=N/NC(=N)N)c1` [Semapimod, N, N’-bis [3,5-diacetylphenyl] decanediamide tetrakis [amidinohydrazone]], the IC50 is reported as about 300 nM.
